Laboratory results: the CheMixHub viscosity set
± gives the uncertainty stated by the source.

Test: xn = mol fraction of the nth substance listed

CCCCn1cc[n+](C)c1.F[B-](F)(F)F + O
101 kPa
Conditions | viscosity [mPa·s]
298.15 K, x2 = 0.1036 | 80.9 ± 16
298.15 K, x2 = 0.6979 | 9.53 ± 1.1
308.15 K, x2 = 0.6004 | 8.69 ± 1.3
313.15 K, x2 = 0.5014 | 8.98 ± 1.4
318.15 K, x2 = 0.4001 | 9.72 ± 1.4
318.15 K, x2 = 0.5014 | 7.77 ± 1.2
323.15 K, x2 = 0.4001 | 8.41 ± 1.3

CO/N=C(\C(=O)N[C@@H]1C(=O)N2C(C(=O)O)=C(C[N+]3(C)CCCC3)CS[C@H]12)c1csc(N)n1.Cl.[Cl-] + O
Conditions | viscosity [mPa·s]
293.15 K, 101.33 kPa, x1 = 0.002414 | 1.235 ± 0.026

C[N+](C)(C)CCO.O=C1O[C@H]([C@@H](O)CO)C([O-])=C1O + O
viscosity [mPa·s], 100 kPa
Conditions | x1 = 0.001102 | x1 = 0.001323 | x1 = 0.001802 | x1 = 0.002629 | x1 = 0.00391 | x1 = 0.005531
293.15 K | 1.048 ± 0.022 | 1.056 ± 0.022 | 1.072 ± 0.022 | 1.099 ± 0.023 | 1.141 ± 0.024 | 1.192 ± 0.025
298.15 K | 0.933 ± 0.019 | 0.94 ± 0.02 | 0.956 ± 0.02 | 0.98 ± 0.02 | 1.018 ± 0.021 | 1.065 ± 0.022
303.15 K | 0.838 ± 0.018 | 0.845 ± 0.018 | 0.859 ± 0.018 | 0.882 ± 0.018 | 0.917 ± 0.019 | 0.96 ± 0.02
308.15 K | 0.758 ± 0.016 | 0.764 ± 0.016 | 0.778 ± 0.016 | 0.799 ± 0.017 | 0.832 ± 0.017 | 0.872 ± 0.018
313.15 K | 0.69 ± 0.014 | 0.696 ± 0.015 | 0.709 ± 0.015 | 0.729 ± 0.015 | 0.76 ± 0.016 | 0.798 ± 0.017

O=C[C@H](O)[C@H](O)[C@H](O)CO + O
298.15 K, 101 kPa
Conditions | viscosity [mPa·s]
x1 = 0.003513 | 0.95 ± 0.009
x1 = 0.01898 | 1.292 ± 0.014

O=P([O-])(O)O.[Na+] + O
viscosity [mPa·s]
Conditions | 298.15 K | 303.15 K | 308.15 K | 313.15 K
101 kPa, x1 = 0.0018 | 0.9216 ± 0.0082 | 0.8373 ± 0.0077 | 0.7482 ± 0.0072 | –
101 kPa, x1 = 0.0054 | 0.9881 ± 0.009 | 0.887 ± 0.0081 | 0.8017 ± 0.0074 | –
101 kPa, x1 = 0.0089 | 1.077 ± 0.0096 | 0.9691 ± 0.0088 | 0.8669 ± 0.0082 | –
101 kPa, x1 = 0.012 | 1.17 ± 0.01 | 1.053 ± 0.0096 | 0.9301 ± 0.0089 | –
101 kPa, x1 = 0.016 | 1.284 ± 0.011 | 1.151 ± 0.011 | 1.008 ± 0.0099 | –
101.32 kPa, x1 = 0.1245 | 20.44 ± 2.1 | – | – | –
101.32 kPa, x1 = 0.1772 | – | – | – | 28.59 ± 2.9

O=S(=O)([O-])NC1CCCCC1.[Rb+] + O
viscosity [mPa·s], 101 kPa
Conditions | x1 = 0.00091 | x1 = 0.001356 | x1 = 0.001833 | x1 = 0.002303 | x1 = 0.002722 | x1 = 0.003185 | x1 = 0.003618 | x1 = 0.004055 | x1 = 0.004552
293.15 K | 1.024 ± 0.0068 | 1.036 ± 0.0069 | 1.048 ± 0.007 | 1.061 ± 0.0071 | 1.072 ± 0.0071 | 1.084 ± 0.0072 | 1.096 ± 0.0072 | 1.108 ± 0.0073 | 1.123 ± 0.0074
298.15 K | 0.9105 ± 0.0062 | 0.9203 ± 0.0062 | 0.9315 ± 0.0063 | 0.9419 ± 0.0063 | 0.9516 ± 0.0064 | 0.962 ± 0.0065 | 0.9723 ± 0.0065 | 0.9828 ± 0.0066 | 0.9953 ± 0.0066
303.15 K | 0.8157 ± 0.0056 | 0.8243 ± 0.0056 | 0.8343 ± 0.0057 | 0.8431 ± 0.0057 | 0.8516 ± 0.0058 | 0.8608 ± 0.0058 | 0.8696 ± 0.0059 | 0.8789 ± 0.0059 | 0.8887 ± 0.006
313.15 K | 0.6675 ± 0.0047 | 0.6747 ± 0.0047 | 0.6824 ± 0.0048 | 0.6896 ± 0.0048 | 0.696 ± 0.0049 | 0.7034 ± 0.0049 | 0.7104 ± 0.0049 | 0.7177 ± 0.005 | 0.7252 ± 0.005
323.15 K | 0.5585 ± 0.0041 | 0.564 ± 0.0041 | 0.5704 ± 0.0041 | 0.5762 ± 0.0042 | 0.5814 ± 0.0042 | 0.5874 ± 0.0042 | 0.5931 ± 0.0043 | 0.5992 ± 0.0043 | 0.6057 ± 0.0043

CCCCOCCOCCO + O=C1CCCN1
298.15 K, 101 kPa
Conditions | viscosity [mPa·s]
x1 = 0.0024 | 14.13 ± 0.3
x1 = 0.0056 | 14.02 ± 0.3
x1 = 0.0086 | 13.96 ± 0.29
x1 = 0.012 | 13.86 ± 0.29
x1 = 0.0205 | 13.67 ± 0.29
x1 = 0.0421 | 13.08 ± 0.28
x1 = 0.0638 | 12.61 ± 0.27
x1 = 0.0865 | 12.19 ± 0.26
x1 = 0.1132 | 11.69 ± 0.25
x1 = 0.1508 | 11.11 ± 0.24
x1 = 0.1869 | 10.55 ± 0.23
x1 = 0.2192 | 10.19 ± 0.22
x1 = 0.2979 | 9.265 ± 0.2
x1 = 0.3786 | 8.558 ± 0.18
x1 = 0.3996 | 8.385 ± 0.18
x1 = 0.4122 | 8.298 ± 0.18
x1 = 0.4764 | 7.823 ± 0.17
x1 = 0.5469 | 7.347 ± 0.16
x1 = 0.6024 | 7.035 ± 0.15
x1 = 0.6618 | 6.715 ± 0.15
x1 = 0.7147 | 6.434 ± 0.14
x1 = 0.7823 | 6.121 ± 0.14
x1 = 0.8345 | 5.879 ± 0.13
x1 = 0.8792 | 5.707 ± 0.13
x1 = 0.9066 | 5.597 ± 0.13
x1 = 0.9407 | 5.469 ± 0.12
x1 = 0.9748 | 5.264 ± 0.12
x2 = 0.0063 | 5.156 ± 0.12

Cc1cccc(C)c1 + O=C1CCCO1
viscosity [mPa·s], 101.33 kPa
Conditions | x2 = 0.1012 | x2 = 0.214 | x2 = 0.3091 | x2 = 0.4022 | x2 = 0.5343 | x2 = 0.5955 | x2 = 0.7101 | x2 = 0.8371 | x2 = 0.9027
293.15 K | 0.69 ± 0.007 | 0.777 ± 0.008 | 0.859 ± 0.008 | 0.948 ± 0.009 | 1.093 ± 0.01 | 1.169 ± 0.011 | 1.332 ± 0.012 | 1.544 ± 0.014 | 1.671 ± 0.015
298.15 K | 0.648 ± 0.006 | 0.725 ± 0.007 | 0.798 ± 0.008 | 0.88 ± 0.008 | 1.016 ± 0.01 | 1.088 ± 0.01 | 1.235 ± 0.011 | 1.437 ± 0.013 | 1.552 ± 0.014
303.15 K | 0.61 ± 0.006 | 0.679 ± 0.007 | 0.752 ± 0.007 | 0.829 ± 0.008 | 0.951 ± 0.009 | 1.013 ± 0.01 | 1.147 ± 0.011 | 1.325 ± 0.012 | 1.431 ± 0.013
308.15 K | 0.573 ± 0.006 | 0.636 ± 0.006 | 0.692 ± 0.007 | 0.761 ± 0.007 | 0.875 ± 0.008 | 0.936 ± 0.009 | 1.06 ± 0.01 | 1.226 ± 0.011 | 1.323 ± 0.012

CC(O)CC(C)(C)O (configuration not stated) + O=Cc1ccccc1
viscosity [mPa·s], 101 kPa
Conditions | x1 = 0.0921 | x1 = 0.1829 | x1 = 0.2762 | x1 = 0.3752 | x1 = 0.4712 | x1 = 0.5787 | x1 = 0.6736 | x1 = 0.775 | x1 = 0.8828
308.15 K | 1.337 ± 0.13 | 1.484 ± 0.15 | 1.717 ± 0.17 | 2.062 ± 0.21 | 2.679 ± 0.27 | 3.484 ± 0.35 | 4.864 ± 0.49 | 7.155 ± 0.72 | 10.92 ± 1.1
318.15 K | 1.004 ± 0.1 | 1.149 ± 0.12 | 1.368 ± 0.14 | 1.7 ± 0.17 | 2.157 ± 0.22 | 2.801 ± 0.28 | 3.804 ± 0.38 | 5.903 ± 0.59 | 9.45 ± 0.95

CC(O)CC(C)(C)O (configuration not stated) + O=[N+]([O-])c1ccccc1
viscosity [mPa·s], 101 kPa
Conditions | x1 = 0.0918 | x1 = 0.1905 | x1 = 0.2926 | x1 = 0.3853 | x1 = 0.4886 | x1 = 0.5862 | x1 = 0.6895 | x1 = 0.7727 | x1 = 0.8991
308.15 K | 1.724 ± 0.17 | 1.903 ± 0.19 | 2.194 ± 0.22 | 2.574 ± 0.26 | 3.288 ± 0.33 | 4.074 ± 0.41 | 5.512 ± 0.55 | 7.423 ± 0.74 | 12.38 ± 1.2
318.15 K | 1.332 ± 0.13 | 1.478 ± 0.15 | 1.703 ± 0.17 | 2.012 ± 0.2 | 2.606 ± 0.26 | 3.222 ± 0.32 | 4.571 ± 0.46 | 6.127 ± 0.61 | 10.82 ± 1.1
